From US10047051B2, “Substituted pyridines and method of use” (AbbVie S.á{acute over (.)}r.l., priority 2015, dated 2018)

How the values were obtained:
Assay type in all cases: cell-based
CFTR ΔF508 mutant = molecular target: T1, CFTR ΔF508 mutant (Homo sapiens, UniProt P13569, DEL508-508); assay: YFP-halide influx assay for the CFTR-ΔF508 mutation (CFBE41o- cells); details: forskolin 10.67 μM; for EC50: from (1−F/F0) vs concentration plot
T1 construct: expressed in transfected cells; host or cells: CFBE41o- cells, adenoviral transduction
Procedure, shortened: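 EC50 derived from plotting 1−F/F0 (fluorescence 36 s after iodide injection over pre-injection value) against compound concentration. Cells: CFBE41o- transduced with ΔF508-CFTR and YFP quench reporter, corrected 24 h at 27° C or by a CFTR modulator at 37° C.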

CFTR-G1349D = molecular target: T2, CFTR-G1349D (Homo sapiens, UniProt P13569, G1349D); assay: YFP-halide influx assay for the CFTR-G1349D
T2 construct: expressed in transfected cells
Procedure, shortened: (§1)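 HEK293 cells reverse-transfected with a CFTR mutant and YFP H148Q/I152L/F47L halide sensor, expressed 24 h at 37° C. Fluorescence quenching followed for 7 s after I⁻ injection; activity expressed as 1−F/F0, with EC50 fitted from 1−F/F0 versus compound concentration.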

CFTR-R117H = molecular target: T3, CFTR-R117H (Homo sapiens, UniProt P13569, R117H); assay: YFP-halide influx assay for the CFTR-R117H
T3 construct: expressed in transfected cells
Procedure, shortened: as §1

CFTR G551D mutant = molecular target: T4, CFTR G551D mutant (Homo sapiens, UniProt P13569, G551D); assay: YFP-halide influx assay for the CFTR-G551D mutation (HEK293 cells); details: forskolin 10.67 μM
T4 construct: expressed in transfected cells; host or cells: HEK293 cells, reverse transfection with plasmids
Procedure, shortened: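 Channel opening read as I⁻-driven quenching of a YFP H148Q/I152L/F47L reporter over 7 s post-injection, expressed as 1−F/F0 and fitted against concentration for EC50. Cells were HEK293 co-transfected at seeding with G551D CFTR plus reporter, then grown 24 h at 37 °C, 5% CO2.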

CFTR G551D/ΔF508 = molecular target: T5, CFTR G551D/ΔF508 (Homo sapiens, UniProt P13569, G551D); assay: TECC assay, primary bronchial epithelial cells, CFTR G551D/ΔF508; details: primary bronchial epithelial cells heterozygous G551D/ΔF508, acute mode, increase in Isc after forskolin
T5 construct: host or cells: primary human bronchial epithelial cells from CF patients heterozygous G551D/ΔF508, no corrector pre-treatment
Protocol: (§2) The TECC (Tranepithelial Clamp Circuit, EP-design) assay measures the functionality of the cystic fibrosis Transmembrane Conductance regulator (CFTR) by measuring the short circuit current (Isc) generated over the basolateral and apical membrane of lung epithelial cells. In TECC the transepithelial potential PD and transepithelial resistance (Rt) are measured in an open circuit and transformed to Isc using Ohm's law. 24 Wells can be measured simultaneously allowing a higher throughput compared to Ussing chambers.
(§3) For this purpose, bronchial epithelial cells isolated from CF patients homozygous for the CFTR ΔF508 mutation (hAEC-CF, Epithelix) are plated on type IV collagen-coated Transwell® supports (Costar). Human airway epithelia are generated by provision of an air-liquid interface for 21 days to form well-differentiated polarized cultures that resemble in vivo pseudo-stratified ciliated epithelium (Fulcher, M. L., Gabriel, S., Burns, K. A., Yankaskas, J. R., Randell, S. H., 2005. Well-differentiated human airway epithelial cell cultures. Methods Mol. Med. 107, 183-206). In the case of the homozygous ΔF508 CFTR samples, the differentiated cells are treated with 3 μM VX809 (2626 South Loop West, Suite 225, Houston, Tex. 77054 USA, Cat n# S1565) to allow sufficient expression of properly folded CFTR protein on the membrane (48 hours basolateral treatment and 24 hours apical treatment), prior to electrophysiological recordings. For heterozygous G551D/ΔF508, differentiated cells are used as such for the recordings.
(§4) Information on the compounds can be retrieved on the homozygous ΔF508 CFTR samples looking at increased CFTR activity when compounds are added in an acute mode or in a chronic mode. On G551D/ΔF508 CFTR heterozygous samples compounds are added in an acute mode to the differentiated cells.
(§5) For the acute mode, for electrophysiological recording, the human airway epithelia are mounted in the TECC heating plate for electrophysiological measurement and kept at 37° C. The epithelia are bathed in a NaCl-Ringer solution (120 mM NaCl, 25 mM NaHCO3, 1.2 mM CaCl2, 1.2 mM MgCl2, 0.8 mM KH2PO4, 0.8 mM K2HPO4, pH 7.4, 5 mM glucose) on both the basolateral and apical sides. Apical amiloride is used to inhibit the endogenous ENaC currents while forkolin is applied on both apical and basolateral side to stimulate CFTR. After forskolin triggering, compounds are added on both sides to test their potential for increasing CFTR gating. Measurements are done during a 20 minute timeframe with recordings every 2 minutes. The increase in Isc is used as a measure for the increased CFTR activity, EC50 values can be generated by measuring impact of different concentrations of compound on Isc on primary cells, for this purpose each transwell is treated with a different compound concentration. Inh-172, an inhibitor specific for CFTR, is used to test the specificity of the tested compounds.
When subjected to this protocol, the following values were obtained. The difference between ΔIsc measured as DMSO (baseline), and the ΔIsc measured with the compound tested.

CFTR ΔF508 = molecular target: T6, CFTR ΔF508 (Homo sapiens, UniProt P13569, DEL508-508); assay: TECC assay, primary bronchial epithelial cells, CFTR ΔF508; details: primary bronchial epithelial cells of CF patients homozygous for CFTR ΔF508, treated with 3 μM VX809, increase in Isc after forskolin
T6 construct: host or cells: primary human bronchial epithelial cells from CF patients homozygous for ΔF508, pre-treated with VX809
Protocol: as §2, §3, §4, §5
For the chronic mode, the differentiated cells are treated with 3 μM VX809 (2626 South Loop West, Suite 225, Houston, Tex. 77054 USA, Cat n# S1565) and potentiator compounds at different concentrations (48 hours basolateral treatment and 24 hours apical treatment), prior to electrophysiological recordings. For electrophysiological recording, the human airway epithelia are mounted in the TECC heating plate for electrophysiological measurement and kept at 37° C. The epithelia are bathed in a NaCl-Ringer solution (120 mM NaCl, 25 mM NaHCO3, 1.2 mM CaCl2, 1.2 mM MgCl2, 0.8 mM KH2PO4, 0.8 mM K2HPO4, pH 7.4, 5 mM glucose) on both the basolateral and apical sides. Apical amiloride is used to inhibit the endogenous ENaC currents while forkolin is applied on both apical and basolateral side to stimulate CFTR. Measurements are done during a 20 minute timeframe with recordings every 2 minutes. […]

CFTR-S549N = molecular target: T7, CFTR-S549N (Homo sapiens, UniProt P13569, S549N); assay: YFP-halide influx assay for the CFTR-S549N; design: % Activation: concentration or dose not given beside the values
T7 construct: expressed in transfected cells
Procedure, shortened: as §1

CFTR-G178R = molecular target: T8, CFTR-G178R (Homo sapiens, UniProt P13569, G178R); assay: YFP-halide influx assay for the CFTR-G178R
T8 construct: expressed in transfected cells
Procedure, shortened: as §1

T3 sequence (P13569 whole entry R117H): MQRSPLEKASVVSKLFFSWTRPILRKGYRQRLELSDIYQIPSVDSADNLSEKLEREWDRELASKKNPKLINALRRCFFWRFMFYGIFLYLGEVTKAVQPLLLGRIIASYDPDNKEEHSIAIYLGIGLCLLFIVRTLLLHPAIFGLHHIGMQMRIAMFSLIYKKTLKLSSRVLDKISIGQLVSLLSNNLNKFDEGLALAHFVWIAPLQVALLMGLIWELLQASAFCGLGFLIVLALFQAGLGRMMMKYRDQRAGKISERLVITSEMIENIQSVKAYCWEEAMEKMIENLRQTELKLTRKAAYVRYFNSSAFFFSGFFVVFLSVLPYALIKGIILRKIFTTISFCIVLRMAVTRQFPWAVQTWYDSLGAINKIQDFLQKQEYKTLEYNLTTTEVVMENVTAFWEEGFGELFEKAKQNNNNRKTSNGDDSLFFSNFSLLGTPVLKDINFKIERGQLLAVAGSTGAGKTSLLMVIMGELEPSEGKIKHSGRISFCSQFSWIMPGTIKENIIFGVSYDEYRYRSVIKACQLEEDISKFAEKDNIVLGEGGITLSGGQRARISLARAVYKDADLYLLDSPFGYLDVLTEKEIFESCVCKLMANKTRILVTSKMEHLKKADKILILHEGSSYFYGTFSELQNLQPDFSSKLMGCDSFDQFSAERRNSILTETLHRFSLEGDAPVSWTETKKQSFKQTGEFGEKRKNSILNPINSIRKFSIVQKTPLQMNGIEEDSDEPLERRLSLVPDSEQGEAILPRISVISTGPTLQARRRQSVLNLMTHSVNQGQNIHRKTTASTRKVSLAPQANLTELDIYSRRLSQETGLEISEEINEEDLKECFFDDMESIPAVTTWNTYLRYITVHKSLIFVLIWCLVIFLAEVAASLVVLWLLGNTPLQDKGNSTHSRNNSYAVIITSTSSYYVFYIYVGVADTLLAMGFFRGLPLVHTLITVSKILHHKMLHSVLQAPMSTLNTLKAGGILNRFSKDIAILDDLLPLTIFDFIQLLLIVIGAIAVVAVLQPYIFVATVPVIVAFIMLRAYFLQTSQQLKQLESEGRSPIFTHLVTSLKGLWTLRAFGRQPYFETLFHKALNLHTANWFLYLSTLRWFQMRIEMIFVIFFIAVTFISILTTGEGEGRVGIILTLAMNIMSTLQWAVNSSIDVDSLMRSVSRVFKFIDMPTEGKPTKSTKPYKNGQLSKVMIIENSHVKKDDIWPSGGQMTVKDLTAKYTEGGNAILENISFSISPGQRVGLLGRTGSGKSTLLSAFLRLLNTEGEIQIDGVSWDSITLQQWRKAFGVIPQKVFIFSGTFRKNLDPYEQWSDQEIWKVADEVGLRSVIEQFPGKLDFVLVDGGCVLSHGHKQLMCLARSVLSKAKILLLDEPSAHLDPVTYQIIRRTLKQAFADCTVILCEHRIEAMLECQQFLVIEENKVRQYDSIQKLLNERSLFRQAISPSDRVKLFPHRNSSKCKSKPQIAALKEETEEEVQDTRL
T1 sequence (P13569 with tags, fused parts or gaps DEL508-508): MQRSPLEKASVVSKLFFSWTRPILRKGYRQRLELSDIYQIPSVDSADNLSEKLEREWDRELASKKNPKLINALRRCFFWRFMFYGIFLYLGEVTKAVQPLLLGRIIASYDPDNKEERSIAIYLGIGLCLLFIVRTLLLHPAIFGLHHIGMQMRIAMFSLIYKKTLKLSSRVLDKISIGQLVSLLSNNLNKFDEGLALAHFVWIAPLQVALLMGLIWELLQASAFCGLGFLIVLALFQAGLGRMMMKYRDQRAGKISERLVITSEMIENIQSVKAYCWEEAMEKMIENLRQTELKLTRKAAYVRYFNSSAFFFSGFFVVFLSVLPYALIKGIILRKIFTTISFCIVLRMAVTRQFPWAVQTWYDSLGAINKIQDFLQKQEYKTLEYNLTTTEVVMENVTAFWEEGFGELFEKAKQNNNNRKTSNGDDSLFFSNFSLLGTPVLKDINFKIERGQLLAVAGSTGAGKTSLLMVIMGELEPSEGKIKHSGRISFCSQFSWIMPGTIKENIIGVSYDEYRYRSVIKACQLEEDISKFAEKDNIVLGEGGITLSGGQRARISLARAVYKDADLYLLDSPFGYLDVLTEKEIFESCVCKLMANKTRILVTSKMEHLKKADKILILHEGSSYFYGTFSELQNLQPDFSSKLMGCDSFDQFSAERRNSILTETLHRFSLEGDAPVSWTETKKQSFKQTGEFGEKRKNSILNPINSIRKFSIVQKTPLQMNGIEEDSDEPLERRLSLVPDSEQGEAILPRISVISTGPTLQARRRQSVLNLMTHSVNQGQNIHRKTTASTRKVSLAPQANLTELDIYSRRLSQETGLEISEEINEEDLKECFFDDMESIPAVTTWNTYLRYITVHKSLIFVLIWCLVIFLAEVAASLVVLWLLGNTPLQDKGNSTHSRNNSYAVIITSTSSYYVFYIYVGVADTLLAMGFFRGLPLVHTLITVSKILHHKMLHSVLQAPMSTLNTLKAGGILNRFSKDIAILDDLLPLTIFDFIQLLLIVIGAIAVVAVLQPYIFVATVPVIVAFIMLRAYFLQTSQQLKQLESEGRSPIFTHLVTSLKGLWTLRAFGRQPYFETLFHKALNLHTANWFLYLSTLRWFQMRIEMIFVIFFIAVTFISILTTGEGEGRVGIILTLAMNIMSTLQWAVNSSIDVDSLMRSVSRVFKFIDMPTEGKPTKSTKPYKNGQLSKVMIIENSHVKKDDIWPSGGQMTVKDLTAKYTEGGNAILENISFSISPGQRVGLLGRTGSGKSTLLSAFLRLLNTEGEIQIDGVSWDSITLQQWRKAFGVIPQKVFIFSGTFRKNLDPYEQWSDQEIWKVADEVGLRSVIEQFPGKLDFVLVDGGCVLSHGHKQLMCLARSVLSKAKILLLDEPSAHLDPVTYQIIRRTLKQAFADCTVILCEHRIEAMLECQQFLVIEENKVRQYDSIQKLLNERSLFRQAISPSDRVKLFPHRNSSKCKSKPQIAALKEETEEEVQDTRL
T6 sequence (P13569 with tags, fused parts or gaps DEL508-508): as above
T8 sequence (P13569 whole entry G178R): as the sequence (P13569 whole entry R117H) above, with H117R, G178R counted along it
T7 sequence (P13569 whole entry S549N): as the sequence (P13569 whole entry R117H) above, with H117R, S549N counted along it
T4 sequence (P13569 whole entry G551D): as the sequence (P13569 whole entry R117H) above, with H117R, G551D counted along it
T5 sequence (P13569 whole entry F508del/G551D): as the sequence (P13569 with tags, fused parts or gaps DEL508-508) above, with G550D counted along it
T2 sequence (P13569 whole entry G1349D): as the sequence (P13569 whole entry R117H) above, with H117R, G1349D counted along it

| Compound | % Activation (CFTR ΔF508 mutant) | EC50 (CFTR ΔF508 mutant) | % Activation (CFTR-G1349D) | EC50 (CFTR-G1349D) | % Activation (CFTR-R117H) | EC50 (CFTR-R117H) | % Activation (CFTR G551D mutant) | EC50 (CFTR G551D mutant) | EC50 (CFTR G551D/ΔF508) | EC50 (CFTR ΔF508) | % Activation (CFTR-S549N) | EC50 (CFTR-S549N) | % Activation (CFTR-G178R) | EC50 (CFTR-G178R) |
| --- | --- | --- | --- | --- | --- | --- | --- | --- | --- | --- | --- | --- | --- | --- |
| Nc1cc(S(=O)(=O)c2ccc(OC(F)(F)F)cc2)cnc1C(=O)NCC1CCCO1 (stereo not drawn) [Compound 7, 3-amino-N-(tetrahydrofuran-2-ylmethyl)-5-{[4-(trifluoromethoxy)phenyl]sulfonyl}pyridine-2-carboxamide] | 103.5% | 69.1 nM | 63.0% | 549 nM | 82.7% | 479 nM | 73.5% | 723 nM | 7720 nM |  |  |  |  |  |
| CCOCCOCC(O)CNC(=O)c1ncc(S(=O)(=O)c2ccc(OC(F)(F)F)cc2)cc1N (stereo not drawn) [Compound 38, 3-amino-N-[3-(2-ethoxyethoxy)-2-hydroxypropyl]-5-{[4-(trifluoromethoxy)phenyl]sulfonyl}pyridine-2-carboxamide] | 103.0% | 61.6 nM |  |  |  |  | 86.0% | 1110 nM |  | 91.3 nM |  |  |  |  |
| Nc1cc(S(=O)(=O)c2ccc(OC(F)(F)F)cc2)cnc1C(=O)NCCC(O)C(F)(F)F (stereo not drawn) [Compound 52, 3-amino-N-(4,4,4-trifluoro-3-hydroxybutyl)-5-{[4-(trifluoromethoxy)phenyl]sulfonyl}pyridine-2-carboxamide] | 96.6% | 8 nM |  |  |  |  | 48.8% | 458 nM | 461 nM | 38.3 nM |  |  |  |  |
| CC1(C)CN(C(=O)c2ncc(S(=O)(=O)c3ccc(OC(F)(F)F)cc3)cc2N)C1 [Compound 59, (3-amino-5-{[4-(trifluoromethoxy)phenyl]sulfonyl}pyridin-2-yl)(3,3-dimethylazetidin-1-yl)methanone] | 111.0% | 34.3 nM |  |  |  |  | 84.6% | 1630 nM |  | 50.4 nM |  |  |  |  |
| COCC(O)CNC(=O)c1ncc(S(=O)(=O)c2ccc(OC(F)(F)F)cc2F)cc1N (stereo not drawn) [Compound 71, 3-amino-5-{[2-fluoro-4-(trifluoromethoxy)phenyl]sulfonyl}-N-(2-hydroxy-3-methoxypropyl)pyridine-2-carboxamide] | 108.0% | 19.1 nM |  |  |  |  | 70.2% | 1260 nM |  | 112 nM |  |  |  |  |
| Nc1cc(S(=O)(=O)c2ccccc2OC(F)(F)F)cnc1C(=O)N1CC(O)(C(F)(F)F)C1 [Compound 85, (3-amino-5-{[2-(trifluoromethoxy)phenyl]sulfonyl}pyridin-2-yl)[3-hydroxy-3-(trifluoromethyl)azetidin-1-yl]methanone] | 110.5% | 1 nM | 90.89% | 2.73 nM | 103% | 3.83 nM | 51.7% | 28.9 nM | 9.5 nM |  | 104.8% | 3.29 nM | 77.69% | 3.29 nM |
| CC(C)OCC(O)CNC(=O)c1ncc(S(=O)(=O)c2ccc(C(F)(F)F)cc2)cc1N (stereo not drawn) [Compound 92, 3-amino-N-[2-hydroxy-3-(propan-2-yloxy)propyl]-5-{[4-(trifluoromethyl)phenyl]sulfonyl}pyridine-2-carboxamide] | 118.5% | 7.2 nM | 91.24% | 30.6 nM | 94.77% | 97.7 nM | 79.0% | 210 nM | 144 nM |  | 98.96% | 131 nM | 104.9% | 145 nM |
| Nc1cc(S(=O)(=O)N2CCC(C(F)(F)F)CC2)cnc1C(=O)NCC(O)C(F)(F)F (stereo not drawn) [Compound 95, 3-amino-N-(3,3,3-trifluoro-2-hydroxypropyl)-5-{[4-(trifluoromethyl)piperidin-1-yl]sulfonyl}pyridine-2-carboxamide] | 104.0% | 5.7 nM | 71.97% | 75.4 nM | 88.62% | 138 nM | 54.2% | 300 nM | 487 nM |  | 65.61% | 86.4 nM | 80.8% | 226 nM |
| COC[C@H](O)CNC(=O)c1ncc(S(=O)(=O)c2ccc(C(F)(F)F)cc2F)cc1N [Compound 99, 3-amino-5-{[2-fluoro-4-(trifluoromethyl)phenyl]sulfonyl}-N-[(2R)-2-hydroxy-3-methoxypropyl]pyridine-2-carboxamide] | 109.5% | 7.6 nM |  |  |  |  | 91.7% | 796 nM | 358 nM |  |  |  |  |  |
| CC(C)OC[C@H](O)CNC(=O)c1ncc(S(=O)(=O)c2ccc(C(F)(F)F)cc2)cc1N [Compound 252, 3-amino-N-[(2R)-2-hydroxy-3-(propan-2-yloxy)propyl]-5-{[4-(trifluoromethyl)phenyl]sulfonyl}pyridine-2-carboxamide] | 102.0% | 2.5 nM |  |  |  |  | 99.7% | 215 nM | 62.2 nM |  |  |  |  |  |
| Nc1cc(S(=O)(=O)c2ccccc2)cnc1C(=O)NC[C@@H](O)C(F)(F)F [Compound 253, 3-amino-5-(phenylsulfonyl)-N-[(2R)-3,3,3-trifluoro-2-hydroxypropyl]pyridine-2-carboxamide] | 102.6% | 6 nM |  |  |  |  | 51.2% | 1070 nM | 1440 nM |  |  |  |  |  |
